# Measurements from BindingDB's records for doi:10.7270/Q2TX3CSC (Vanderbilt Screening Center for GPCRs, Ion Channels and …, 2009).
# Non-standard residues stand in square brackets, D forms with d. Residues, ends and D or L forms follow the SMILES beside them. ξ: configuration not given here. *: point of attachment. ξF = NC(Cc1ccccc1)C(=O)O; Cbz = O=C(OCc1ccccc1)*
# Biological target: T1, Solute carrier family 12 member 5 (Homo sapiens, UniProt Q9H2X9)
# T1 sequence (Q9H2X9 whole entry): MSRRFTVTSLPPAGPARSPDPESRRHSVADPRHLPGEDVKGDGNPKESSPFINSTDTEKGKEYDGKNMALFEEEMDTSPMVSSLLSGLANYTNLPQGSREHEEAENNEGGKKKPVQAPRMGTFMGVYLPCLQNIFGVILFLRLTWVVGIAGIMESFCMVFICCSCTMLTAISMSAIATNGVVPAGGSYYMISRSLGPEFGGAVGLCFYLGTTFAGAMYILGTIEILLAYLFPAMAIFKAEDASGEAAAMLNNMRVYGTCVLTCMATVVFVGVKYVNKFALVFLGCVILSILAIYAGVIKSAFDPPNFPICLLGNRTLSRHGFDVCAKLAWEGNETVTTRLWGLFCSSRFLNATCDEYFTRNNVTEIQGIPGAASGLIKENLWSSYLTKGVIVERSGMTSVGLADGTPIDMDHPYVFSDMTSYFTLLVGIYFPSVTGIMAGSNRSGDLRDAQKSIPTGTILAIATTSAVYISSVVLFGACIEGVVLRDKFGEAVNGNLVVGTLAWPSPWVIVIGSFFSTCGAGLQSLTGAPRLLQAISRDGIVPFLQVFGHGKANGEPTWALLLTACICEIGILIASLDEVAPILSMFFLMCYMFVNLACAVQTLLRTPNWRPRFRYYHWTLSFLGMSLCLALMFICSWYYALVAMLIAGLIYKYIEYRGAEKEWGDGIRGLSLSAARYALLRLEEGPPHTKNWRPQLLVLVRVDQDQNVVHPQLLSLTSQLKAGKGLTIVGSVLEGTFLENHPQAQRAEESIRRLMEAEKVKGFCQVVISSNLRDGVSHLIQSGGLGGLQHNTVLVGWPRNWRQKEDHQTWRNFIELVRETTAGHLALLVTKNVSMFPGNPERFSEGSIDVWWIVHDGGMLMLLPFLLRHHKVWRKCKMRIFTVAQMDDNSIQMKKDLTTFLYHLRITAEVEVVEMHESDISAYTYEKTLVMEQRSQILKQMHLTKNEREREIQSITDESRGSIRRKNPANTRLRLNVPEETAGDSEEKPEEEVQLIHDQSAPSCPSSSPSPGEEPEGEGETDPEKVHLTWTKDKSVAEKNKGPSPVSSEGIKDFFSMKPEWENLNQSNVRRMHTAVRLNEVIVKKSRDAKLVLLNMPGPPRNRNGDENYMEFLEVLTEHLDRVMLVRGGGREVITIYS
# Assay: KCC2 modulator potency by thallium flux, dose response, cell-based, HEK293 KCC2, FluoZin-2 fluorescence (AID 1736)
# Conditions: not given
row,Compound,EC50 [µM]
1,O=C(NN1C(=O)/C(=C/c2nc3ccccc3[nH]2)SC1=S)c1ccccc1Cl [N-{5-[1-(1H-Benzoimidazol-2-yl)-meth-(Z)-ylidene]-4-oxo-2-thioxo-thiazolidin-3-yl}-2-chloro-benzamide],0.0822
2,Cc1cccc(NC2=NN=C(c3ccccc3F)CS2)c1C,27.9
3,"Cc1ccccc1-c1nc(CS(=O)(=O)CC(=O)NCc2ccccc2)c(C)o1 [2-[[5-methyl-2-(2-methylphenyl)-1,3-oxazol-4-yl]methylsulfonyl]-N-(phenylmethyl)ethanamide]",11.8
4,"CCOc1ccc2nc(Sc3cc(O)n(-c4cccc(OC)c4)c3O)sc2c1 [3-(6-Ethoxy-benzothiazol-2-ylsulfanyl)-1-(3-methoxy-phenyl)-pyrrolidine-2,5-dione]",244
5,O=C(CNC(=O)/C(=C/c1ccccc1)NC(=O)c1ccc(Br)cc1)OCc1ccccc1 [(phenylmethyl) 2-[[(Z)-2-[(4-bromophenyl)carbonylamino]-3-phenyl-prop-2-enoyl]amino]ethanoate],1.15
6,CN(C)S(=O)(=O)c1ccc(Cl)c(C(=O)Nc2nc3ccccc3[nH]2)c1 [SMR000370637],2.11
7,CC(C)NC(=S)NNC1=c2cc(C(C)C)ccc2=NC1=O [SMR000242097],5.13
8,"Oc1ccccc1CN=Nc1nc2ccccc2o1 [(6E)-6-[(1,3-benzoxazol-2-ylhydrazo)methylidene]-1-cyclohexa-2,4-dienone]",98.9
9,c1ccc(-c2csc(N=NCc3ccco3)n2)cc1 [(2-furfurylideneamino)-(4-phenylthiazol-2-yl)amine],15
10,"CC(C)c1onc(C(=O)N2CCN(Cc3ccccc3)CC2)c1[N+](=O)[O-] [(4-benzylpiperazin-1-yl)-(4-nitro-5-propan-2-yl-1,2-oxazol-3-yl)methanone]",0.34
11,CCOc1ccc(C(CC(=O)O)NC(=O)C(Sc2ccccc2)c2ccccc2)cc1 (centres undefined) [3-(4-ethoxyphenyl)-3-[(2-phenyl-2-phenylsulfanyl-ethanoyl)amino]propanoic acid],4060
12,"Cc1ccc(/C=C2\SC(=S)N(/N=C/C3C=C([N+](=O)[O-])C=CC3=O)C2=O)o1 (centres undefined) [(5Z)-5-[(5-methylfuran-2-yl)methylidene]-3-[[(E)-(3-nitro-6-oxocyclohexa-2,4-dien-1-ylidene)methyl]amino]-2-sulfanylidene-1,3-thiazolidin-4-one]",11.8
13,COc1ccccc1-n1cnc2cc(NS(=O)(=O)c3ccccc3)ccc21 [MLS000032522],1.9
14,CC1CCN(C(=O)CSc2ccc(-c3ccc(F)cc3)nn2)CC1 [2-[6-(4-Fluoro-phenyl)-pyridazin-3-ylsulfanyl]-1-(4-methyl-piperidin-1-yl)-ethanone],2.66
15,"COc1ccc(-c2nnc(S/C(=C/c3ccc(Cl)cc3)C(=O)O)o2)cc1 [(E)-3-(4-chlorophenyl)-2-[[5-(4-methoxyphenyl)-1,3,4-oxadiazol-2-yl]sulfanyl]prop-2-enoic acid]",0.287
16,O=C(Cc1csc(-c2ccccc2)n1)NCc1ccc(F)cc1 [MLS000336311],3.59
17,CC(C)N1C(=O)S/C(=C/c2ccccc2OCc2ccc(C(=O)O)cc2)C1=O,1.48
18,"COc1cc(C=NNC(=O)CN(Cc2ccccc2)S(=O)(=O)c2ccc3c(c2)OCCO3)ccc1O [2,3-Dihydro-benzo[1,4]dioxine-6-sulfonic acid benzyl-(4-hydroxy-3-methoxy-benzylidene-hydrazinocarbonylmethyl)-amide]",2.79
19,"CCc1ccc(Nc2nnc(SCc3cc(=O)n4ccsc4n3)s2)cc1 [7-[[5-(4-ethylanilino)-1,3,4-thiadiazol-2-yl]sulfanylmethyl]-[1,3]thiazolo[3,2-a]pyrimidin-5-one]",0.202
20,CCOC(=O)CNC(=O)C(Cc1ccccc1)NC(=O)OCc1ccccc1 (centres undefined) [2-[[1-oxo-3-phenyl-2-(phenylmethoxycarbonylamino)propyl]amino]acetic acid ethyl ester] (Cbz-[ξF]-Gly-OEt),3.01

row,Compound,EC50 [µM]
1,CCn1c(SCC(=O)Nc2ccc(Cl)cc2)nc2nc3c(cc2c1=O)CCCC3 [MLS000589154],28.2
2,"O=C(CSc1nnc(C2CC2)n1Cc1ccccc1)c1cc2ccccc2o1 [1-(1-benzofuran-2-yl)-2-[(4-benzyl-5-cyclopropyl-1,2,4-triazol-3-yl)sulfanyl]ethanone]",21.2
3,"COc1ccc(-n2cnnc2SCC(=O)Nc2cc(S(=O)(=O)N3CCCCC3)ccc2C)cc1 [2-[[4-(4-methoxyphenyl)-1,2,4-triazol-3-yl]sulfanyl]-N-(2-methyl-5-piperidin-1-ylsulfonyl-phenyl)ethanamide]",15.1
4,"Cc1cc(NC(=O)CSc2ccc(-c3ccc(F)cc3)nn2)no1 [2-[6-(4-fluorophenyl)pyridazin-3-yl]sulfanyl-N-(5-methyl-1,2-oxazol-3-yl)acetamide]",0.171
5,COc1ccc(C(=O)N2CCCC(c3ccccc3)C2)cc1 (centres undefined) [(4-methoxyphenyl)-(3-phenyl-1-piperidinyl)methanone],7.32
6,COc1ccccc1C(=O)NC1CCN(C(=S)NCCc2ccccc2)CC1 [2-methoxy-N-[1-(2-phenylethylcarbamothioyl)piperidin-4-yl]benzamide],6.66
7,Cn1c(SCc2ccccc2Cl)nc2ccccc21 [2-[(2-chlorobenzyl)thio]-1-methyl-1H-benzimidazole],260
8,O=C(CSc1ccc(-c2ccccc2)nn1)Nc1ccc2c(c1)OCCO2 [MLS000724887],3.48
9,Cc1ccc(NC(=O)CCCSc2ccccc2)cc1S(=O)(=O)N1CCOCC1 [MLS000761060],6.79
10,O=C(CCSCCc1ccccn1)Nc1ccc(Cc2ccncc2)cc1 [3-(2-pyridin-2-ylethylsulfanyl)-N-[4-(pyridin-4-ylmethyl)phenyl]propanamide],9.8
11,O=C(COC(=O)c1cc([N+](=O)[O-])ccc1NCc1ccccc1)NC1CCCCC1 [2-(benzylamino)-5-nitro-benzoic acid [2-(cyclohexylamino)-2-keto-ethyl] ester],0.651
12,"O=C(C1CCN(S(=O)(=O)c2cccc3nsnc23)CC1)N1CCc2ccccc2C1 [2-{[1-(2,1,3-benzothiadiazol-4-ylsulfonyl)piperidin-4-yl]carbonyl}-1,2,3,4-tetrahydroisoquinoline]",69.7
13,"CC1Cc2ccccc2N1C(=O)CSc1nnnn1Cc1ccccc1 (centres undefined) [1-(2-methyl-2,3-dihydroindol-1-yl)-2-[[1-(phenylmethyl)-1,2,3,4-tetrazol-5-yl]sulfanyl]ethanone]",13.6
14,O=C(COC(=O)c1cc([N+](=O)[O-])ccc1NCCO)c1ccccc1 [2-(2-hydroxyethylamino)-5-nitro-benzoic acid phenacyl ester],9.16
15,"Cc1csc(NC(=O)CSc2ccc(-c3ccccc3)nn2)n1 [N-(4-methyl-1,3-thiazol-2-yl)-2-(6-phenylpyridazin-3-yl)sulfanyl-ethanamide]",0.249
16,"O=C(O)CCN(Cc1ccccc1)S(=O)(=O)c1c(Cl)cccc1Cl [3-[(2,6-dichlorophenyl)sulfonyl-(phenylmethyl)amino]propanoic acid]",59.2
17,"Sc1nnc(COc2ccc(Cl)cc2)o1 [5-(4-Chloro-phenoxymethyl)-3H-[1,3,4]oxadiazole-2-thione]",9.34
18,Cc1ccc2oc(-c3ccc(C)c(NC(=S)NC(=O)c4cccs4)c3)nc2c1 [1-[2-Methyl-5-(5-methyl-benzooxazol-2-yl)-phenyl]-3-(thiophene-2-carbonyl)-thiourea],2.05
19,O=C(CSc1ccccc1C(=O)NCc1ccccc1)NC1CCCCCCC1 [2-[2-(cyclooctylamino)-2-oxidanylidene-ethyl]sulfanyl-N-(phenylmethyl)benzamide],51.6

# Same assay, conditions: inactive by the depositor's call
row,Compound,EC50 [µM]
1,"O=C(CCCn1ncn2c(cc3occc32)c1=O)N1CCc2ccccc2C1 [3-[4-(3,4-dihydro-1H-isoquinolin-2-yl)-4-keto-butyl]furo[3,4]pyrrolo[3,5-c][1,2,4]triazin-4-one]",44.2
2,CN(C)S(=O)(=O)c1ccc(NC(=O)CSc2ncnc3ccccc23)cc1 [MLS000394067],87700
3,"S=c1[nH]nc(-c2cccc(Cl)c2)n1N=Cc1ccco1 [3-(3-chlorophenyl)-4-(furan-2-ylmethylideneamino)-1H-1,2,4-triazole-5-thione]",60.1
4,"O=C(NCCCn1ncc2ccccc21)c1cc(COc2c(F)cccc2F)on1 [5-[(2,6-difluorophenoxy)methyl]-N-(3-indazol-1-ylpropyl)-1,2-oxazole-3-carboxamide]",18.7
5,Cc1cc2ccccn2c1C(=O)c1nc(N2CCOCC2)ncc1Cl [(5-chloranyl-2-morpholin-4-yl-pyrimidin-4-yl)-(2-methylindolizin-3-yl)methanone],11
